Data reported in US20240307362A1 (priority 2019, published 2024).
Values joined by “and” are separate entries in the source; they are usually repeats but may differ in a detail not shown here. Equal values may be shown once. Read-outs that look alike come from different tables or passages of the source.

Assays:
[1] = tested on: Ba/F3-EGFR-WT; assay: Ba/F3 cell survival assay, WT EGFR; format: cell-based
[2] = tested on: Ba/F3-EGFR-insSVD; assay: Ba/F3 cell survival assay, EGFR-insSVD; format: cell-based
Summary of the method: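 Ba/F3 cells stably expressing WT EGFR or EGFR-insSVD via retrovirus, grown without IL-3 on 10 ng/mL EGF, plated at 4000 cells/well. Compound exposure 48 h at 37 °C; viability read by CellTiter-Glo luminescence.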

[3] = target: mutEGFR (D770_N771insSVD) (Homo sapiens (Human), UniProt P00533, INS770SVD); assay: biochemical; details: mutEGFR (D770_N771 insSVD) at 2 mM ATP IC50, 2 mM ATP
[4] = target: human Bub1 (Homo sapiens (Human), UniProt O43683); assay: Bub1 high ATP kinase assay (TR-FRET); format: biochemical
Text: Bub1-inhibitory activity of compounds of the present invention at a high ATP concentration was quantified employing the Bub1 TR-FRET high ATP kinase assay as described in the following paragraphs.
N-terminally His6-tagged recombinant catalytic domain of human Bub1 (amino acids 704-1085), expressed in insect cells (Hi5) and purified by Ni-NTA affinity chromatography and subsequent size exclusion chromatography, was used as enzyme.

[5] = Mus musculus, BaF3, 48 h, read-out: BA/F3 (wild type) IC50, cell viability, Cell Titer-Glo, 48 h, with 10 ng/mL EGF, without IL-3
[6] = Mus musculus, BaF3, 48 h, read-out: BA/F3 (insSVD) IC50, cell viability, Cell Titer-Glo, 48 h, with 10 ng/mL EGF, without IL-3
[7] = read-out: Bub1 high ATP (2 mM) IC50, 2 mM ATP
[8] = read-out: BA/F3 (wild type) IC50, cell viability, Cell Titer-Glo, 48 h, with 10 ng/mL EGF, without IL-3
[9] = read-out: BA/F3 (insSVD) IC50, cell viability, Cell Titer-Glo, 48 h, with 10 ng/mL EGF, without IL-3
[10] = Bub1 high ATP (2 mM) IC50, 2 mM ATP

Sequence of mutEGFR (D770_N771insSVD) (P00533 other isoform, or with tags, fused parts or gaps ins SVD behind 770): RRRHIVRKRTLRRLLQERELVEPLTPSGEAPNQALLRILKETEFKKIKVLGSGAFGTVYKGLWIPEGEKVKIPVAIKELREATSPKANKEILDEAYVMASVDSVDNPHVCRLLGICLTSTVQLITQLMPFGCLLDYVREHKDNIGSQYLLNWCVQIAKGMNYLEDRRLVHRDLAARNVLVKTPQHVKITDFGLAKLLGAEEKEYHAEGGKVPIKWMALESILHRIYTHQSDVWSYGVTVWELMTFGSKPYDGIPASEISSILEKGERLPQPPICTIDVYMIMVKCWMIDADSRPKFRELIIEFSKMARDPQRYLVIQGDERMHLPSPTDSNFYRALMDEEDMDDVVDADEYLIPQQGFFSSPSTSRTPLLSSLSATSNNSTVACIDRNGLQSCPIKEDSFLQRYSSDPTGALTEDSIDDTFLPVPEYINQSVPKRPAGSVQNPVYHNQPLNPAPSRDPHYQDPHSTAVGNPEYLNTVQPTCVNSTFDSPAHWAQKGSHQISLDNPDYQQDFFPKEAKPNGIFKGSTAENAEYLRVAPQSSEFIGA
Sequence of human Bub1 (O43683 704-1085): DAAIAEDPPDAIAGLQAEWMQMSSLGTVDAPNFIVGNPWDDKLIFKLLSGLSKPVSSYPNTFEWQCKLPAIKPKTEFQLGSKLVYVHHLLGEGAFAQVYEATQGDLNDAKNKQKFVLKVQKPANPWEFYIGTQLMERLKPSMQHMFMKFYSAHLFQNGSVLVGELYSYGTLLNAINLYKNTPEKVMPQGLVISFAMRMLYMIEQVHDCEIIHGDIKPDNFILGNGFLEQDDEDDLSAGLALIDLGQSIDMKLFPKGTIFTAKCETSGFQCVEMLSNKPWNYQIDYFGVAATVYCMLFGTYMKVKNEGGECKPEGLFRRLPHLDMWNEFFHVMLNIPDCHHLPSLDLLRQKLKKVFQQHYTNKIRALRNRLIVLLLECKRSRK

| SMILES | IC50 [1, 5] [nM] | IC50 [2, 6] [nM] | IC50 [3] [nM] | IC50 [4, 7] [nM] | IC50 [1, 8] [nM] | IC50 [2, 9] [nM] | IC50 [4, 10] |
| --- | --- | --- | --- | --- | --- | --- | --- |
| Cc1cccc(Nc2c(-c3ccncc3OCC3(C)CCO3)[nH]c3c2C(=O)NCC3)c1Cl (racemic) [Example 55, 3-(2-chloro-3-methylanilino)-2-{3-[(2-methyloxetan-2-yl)methoxy]pyridin-4-yl}-1,5,6,7-tetrahydro-4H-pyrrolo[3,2-c]pyridin-4-one] | 593 | 67.3 | 0.138 | 15400 |  |  |  |
| COc1c(Cl)cc(F)cc1Nc1c(-c2ccncc2OCC2(C)CCO2)[nH]c2c1C(=O)NCC2 (racemic) [Example 68, 3-(3-chloro-5-fluoro-2-methoxyanilino)-2-(3-{[2-methyloxetan-2-yl]methoxy}pyridin-4-yl)-1,5,6,7-tetrahydro-4H-pyrrolo[3,2-c]pyridin-4-one] | 1260 | 103 | 0.215 | > 20000 |  |  |  |
| Cc1c(Cl)cccc1Nc1c(-c2ccncc2OCC2(C)CCO2)[nH]c2c1C(=O)NCC2 (racemic) [Example 80, 3-(3-chloro-2-methylanilino)-2-(3-{[2-methyloxetan-2-yl]methoxy}pyridin-4-yl)-1,5,6,7-tetrahydro-4H-pyrrolo[3,2-c]pyridin-4-one] | 546 | 35.2 | 0.187 | 6640 |  |  |  |
| Cc1c(F)cccc1Nc1c(-c2ccncc2OCC2(C)CCO2)[nH]c2c1C(=O)NCC2 (racemic) [Example 83, 3-(3-fluoro-2-methylanilino)-2-(3-{[2-methyloxetan-2-yl]methoxy}pyridin-4-yl)-1,5,6,7-tetrahydro-4H-pyrrolo[3,2-c]pyridin-4-one] | 986 | 41.9 | 0.246 | > 20000 |  |  |  |
| COc1c(Cl)cc(F)cc1Nc1c(-c2ccncc2OCC2(C)CCO2)[nH]c2c1C(=O)NCC2 (single isomer, unassigned) [Example 69, 3-(3-chloro-5-fluoro-2-methoxyanilino)-2-(3-{[2-methyloxetan-2-yl]methoxy}pyridin-4-yl)-1,5,6,7-tetrahydro-4H-pyrrolo[3,2-c]pyridin-4-one] |  |  | 0.317 |  | 1430 | 241 | 13500 nM |
| COc1c(Cl)cc(F)cc1Nc1c(-c2ccncc2OCC2(C)CCO2)[nH]c2c1C(=O)NCC2 (single isomer, unassigned) [Example 70, 3-(3-chloro-5-fluoro-2-methoxyanilino)-2-(3-{[2-methyloxetan-2-yl]methoxy}pyridin-4-yl)-1,5,6,7-tetrahydro-4H-pyrrolo[3,2-c]pyridin-4-one] |  |  | 0.161 |  | 537 | 32.7 | 18800 nM and > 20000 nM |
| Cc1c(Cl)cccc1Nc1c(-c2ccncc2OC[C@]2(C)CCO2)[nH]c2c1C(=O)NCC2 (single isomer, unassigned) [Example 82, (+)-3-(3-chloro-2-methylanilino)-2-(3-{[2-methyloxetan-2-yl]methoxy}pyridin-4-yl)-1,5,6,7-tetrahydro-4H-pyrrolo[3,2-c]pyridin-4-one] | 673 | 34.8 | 0.134 | 5980 |  |  |  |
| Cc1cccc(Nc2c(-c3ccncc3OCC3(C)CCO3)[nH]c3c2C(=O)NCC3)c1Cl (single isomer, unassigned; (+)) [Example 56, (+)-3-(2-chloro-3-methylanilino)-2-{3-[(2-methyloxetan-2-yl)methoxy]pyridin-4-yl}-1,5,6,7-tetrahydro-4H-pyrrolo[3,2-c]pyridin-4-one] |  |  | 0.15 | 16100 | 489 | 35.1 |  |
| Cc1c(F)cccc1Nc1c(-c2ccncc2OCC2(C)CCO2)[nH]c2c1C(=O)NCC2 (single isomer, unassigned; (+)) [Example 85, (+)-3-(3-fluoro-2-methylanilino)-2-(3-{[2-methyloxetan-2-yl]methoxy}pyridin-4-yl)-1,5,6,7-tetrahydro-4H-pyrrolo[3,2-c]pyridin-4-one] |  |  | 0.107 | 15800 | 1260 | 43.7 |  |
| Cc1cccc(Nc2c(-c3ccncc3OCC3(C)CCO3)[nH]c3c2C(=O)NCC3)c1Cl (single isomer, unassigned; (-)) [Example 57, (−)-3-(2-chloro-3-methylanilino)-2-{3-[(2-methyloxetan-2-yl)methoxy]pyridin-4-yl}-1,5,6,7-tetrahydro-4H-pyrrolo[3,2-c]pyridin-4-one] |  |  | 0.264 | 13000 | 3250 | 402 |  |
| COc1c(Cl)cccc1Nc1c(-c2ccncc2OC[C@@H]2CCN2C)[nH]c2c1C(=O)NCC2 [Example 27, 3-(3-chloro-2-methoxyanilino)-2-(3-{[(2S)-1-methylazetidin-2-yl]methoxy}pyridin-4-yl)-1,5,6,7-tetrahydro-4H-pyrrolo[3,2-c]pyridin-4-one] | 937 | 36.5 | 0.445 |  |  |  |  |
| CCN1CC[C@H]1COc1cnccc1-c1[nH]c2c(c1Nc1cccc(Cl)c1OC)C(=O)NCC2 [Example 28, 3-(3-chloro-2-methoxyanilino)-2-(3-{[(2S)-1-ethylazetidin-2-yl]methoxy}pyridin-4-yl)-1,5,6,7-tetrahydro-4H-pyrrolo[3,2-c]pyridin-4-one] | 1780 | 181 | 1.06 |  |  |  |  |
| COc1c(Cl)cccc1Nc1c(-c2ccncc2OC[C@@H]2CCN2CC(F)(F)F)[nH]c2c1C(=O)NCC2 [Example 29, 3-(3-chloro-2-methoxyanilino)-2-(3-{[(2S)-1-(2,2,2-trifluoroethyl)azetidin-2-yl]methoxy}pyridin-4-yl)-1,5,6,7-tetrahydro-4H-pyrrolo[3,2-c]pyridin-4-one] | 1040 | 60.8 | 0.304 |  |  |  |  |
| COc1c(Cl)cccc1Nc1c(-c2ccncc2OC[C@H]2CCN2CC(F)(F)F)[nH]c2c1C(=O)NCC2 [Example 30, 3-(3-chloro-2-methoxyanilino)-2-(3-{[(2R)-1-(2,2,2-trifluoroethyl)azetidin-2-yl]methoxy}pyridin-4-yl)-1,5,6,7-tetrahydro-4H-pyrrolo[3,2-c]pyridin-4-one] | 402 | 10.4 | 0.346 |  |  |  |  |
| COc1c(Cl)cccc1Nc1c(-c2ccncc2OCC2(C)CCN2C)[nH]c2c1C(=O)NCC2 (centres unmarked) [Example 31, 3-(3-chloro-2-methoxyanilino)-2-{3-[(1,2-dimethylazetidin-2-yl)methoxy]pyridin-4-yl}-1,5,6,7-tetrahydro-4H-pyrrolo[3,2-c]pyridin-4-one] | 391 | 23.7 |  | 7540 |  |  |  |
| COc1c(Cl)cccc1Nc1c(-c2ccncc2OCC2(C)CCN2CC(F)(F)F)[nH]c2c1C(=O)NCC2 (centres unmarked) [Example 32, 3-(3-chloro-2-methoxyanilino)-2-(3-{[2-methyl-1-(2,2,2-trifluoroethyl)azetidin-2-yl]methoxy}pyridin-4-yl)-1,5,6,7-tetrahydro-4H-pyrrolo[3,2-c]pyridin-4-one] | 298 | 12.2 |  | > 20000 |  |  |  |
| COc1c(F)cccc1Nc1c(-c2ccncc2OCC2(F)COC2)[nH]c2c1C(=O)NCC2 [Example 61, 3-(3-fluoro-2-methoxyanilino)-2-{3-[(3-fluorooxetan-3-yl)methoxy]pyridin-4-yl}-1,5,6,7-tetrahydro-4H-pyrrolo[3,2-c]pyridin-4-one] | 3570 | 445 |  | > 20000 |  |  |  |
| Cc1cccc(Nc2c(-c3ccncc3OCCC3CCO3)[nH]c3c2C(=O)NCC3)c1Cl (centres unmarked) [Example 62, 3-(2-chloro-3-methylanilino)-2-{3-[2-(oxetan-2-yl)ethoxy]pyridin-4-yl}-1,5,6,7-tetrahydro-4H-pyrrolo[3,2-c]pyridin-4-one] | 3700 | 42.1 |  | 5250 |  |  | > 5710 nM |
| CCc1c(Cl)cccc1Nc1c(-c2ccncc2OCC2CCO2)[nH]c2c1C(=O)NCC2 (centres unmarked) [Example 77, 3-(3-chloro-2-ethylanilino)-2-(3-{[oxetan-2-yl]methoxy}pyridin-4-yl)-1,5,6,7-tetrahydro-4H-pyrrolo[3,2-c]pyridin-4-one] | 777 | 46.7 |  | 1760 |  |  |  |
| COc1c(F)cccc1Nc1c(-c2ccncc2OC[C@H]2CCN2C)[nH]c2c1C(=O)NCC2 [Example 79, 3-(3-fluoro-2-methoxyanilino)-2-(3-{[(2R)-1-methylazetidin-2-yl]methoxy}pyridin-4-yl)-1,5,6,7-tetrahydro-4H-pyrrolo[3,2-c]pyridin-4-one] | 712 | 113 | 0.718 |  |  |  |  |
| CCC1(COc2cnccc2-c2[nH]c3c(c2Nc2cccc(Cl)c2Cl)C(=O)NCC3)COC1 [Example 87, 3-(2,3-dichloroanilino)-2-{3-[(3-ethyloxetan-3-yl)methoxy]pyridin-4-yl}-1,5,6,7-tetrahydro-4H-pyrrolo[3,2-c]pyridin-4-one] | 813 | 119 |  | > 5700 |  |  |  |
